# Laboratory results as given in patent US20160199365A1, “2-Carboxamide Cycloamino Urea Derivatives in Combination with HSP90 Inhibitors for the Treatment of Proliferative Diseases” (Novartis AG, priority 2011, published 2016).
# Like-named read-outs stand apart in the source and are kept apart here.
# What was measured:
# [1] = Stability of Compound A dosing formulation; format: physicochemical; conditions: room temperature
# Procedure: Compound A is formulated in NMP/PEG300/Solutol HS15/water (10:30:20:40% vol/vol) The compound is fully dissolved in NMP first and water is added immediately prior to administration to animals.
# Compound A is formulated in NMP/PEG300/Solutol HS15/water (10:30:20:40% vol/vol). The compound is fully dissolved in NMP first and water is added immediately prior to administration to animals.
# [2] = system: HGC-27 subcutaneous xenografts (human gastric carcinoma cells, PIK3CA mutation, PTEN null); conditions: mouse, in vivo, po
# Procedure: Experiments are performed in female Hsd:Athymic Nude-FoxN1^nu Nude mice approximately 8-12 weeks of age at treatment start.
# HGC-27 cells, which are human gastric carcinoma cells with a PIK3CA mutation (c1624G>A, p.E542K) and PTEN null, are grown in MEM culture medium containing 1% non-essential amino acid with 10% heat-inactivated FCS, and are incubated at 37° C. in a 5% CO2 humidified atmosphere.
# HGC-27 tumors are established in vivo by injection 5×10^6 cells in 200 μl (100 μl PBS+100 μl Matrigel) (Cat #354234, BD Bioscience, Bedford, Mass.) subcutaneous into the right flank of the animals. The efficacy experiments are started when the tumors reach an average size of approximately 230 mm^3 (day 12 post cell injection).
# Compound A is formulated in 0.5% Methylcellulose (MC). 80 mg of Compound A is added to 16 ml of 0.5% MC, then stirred/vortexed and sonicated in water bath sonicator for 1 h to obtain 5 mg/ml homogeneous suspension. 0.5% MC is used to dilute the 5 mg/ml solution to 2.5 mg/ml and 1.25 mg/ml for dosing. Compound A or vehicle is administered orally at a volume of 10 ml/kg.
# Tumor volumes are measured with calipers and determined according to the formula: length×diameter^2×π/6. Antitumor activity is expressed as T/C % which is determined according to the formula: (mean change of tumor volume of treated animals/mean change of tumor volume of control animals)×100. Regressions (%) are calculated according to the formula ((mean tumor volume at end of treatment-mean tumor volume at start of treatment)/mean tumor volume at start of treatment)×100. Body weights and tumor volumes are recorded twice a week.
# Where applicable, data is presented as mean±SEM. For all tests, the level of significance is set at p<0.05. For tumor volumes, comparisons between treatment groups and vehicle control group are done using one-way ANOVA followed by Dunnett's test. Tumor volumes comparisons between treatment groups are done using Kruskal-Wallis one way ANOVA post-hoc Student Newman Kuels test or Dunn's test. In the first experiment, Compound A is orally administered daily to HGC-27 subcutaneous xenografts, tumor-bearing nude mice at a dose of 12.5 mg/kg, 25 mg/kg and 50 mg/kg.
# [3] = system: HGC-27 subcutaneous xenografts; assay: HGC-27 gastric cancer xenograft model, treatment from day 20 for 14 days (Example 2); format: in vivo, mice
# Description: The procedure described in Example 1 is followed with the following modifications: Treatments are initiated on day 20 following tumor cell implantation of 5 million HCG-27 cells, when the average tumor volume is 316 mm^3 (164-485 mm^3).
# [4] = system: NCI-N87 tumors (human gastric carcinoma cells); assay: NCI-N87 gastric cancer xenograft model, third experiment (Example 3); format: in vivo, mice; conditions: single agent
# Procedure: Cells are harvested with trypsin (0.25% w/v)-EDTA (0.53 mM), are re-suspended in culture medium (with additives) and are counted with a Casy® system. Cell culture reagents are purchased from BioConcept (Allschwil, Switzerland). NCI-N87 tumors are established by injecting […] to 1×10^7 cells (in HBSS containing 50% v/v Matrigel) subcutaneously with a 23 Gauge needle. When tumors are established and reach between 180 and 210 mm^3, animals are randomized into treatment groups and the treatments are initiated. Compound A is formulated in NMP/PEG300/Solutol HS15/water (10:30:20:40% vol/vol) The compound is fully dissolved in NMP first and water is added immediately prior to administration to animals. […] All doses of AUY922 refer to the free base equivalent. AUY922 is administered iv at a volume of 10 ml/kg, twice a week. […] Pairwise comparisons are done using a one way ANOVA followed by Tukey's test. The level of significance of body weight change within a group between start and end of the treatment period is determined using a paired t-test. […] Calculations are performed using GraphPad Prism 4 for windows (GraphPad Software Inc.). In addition, an approximation of drug interactions is made using the method described by Clarke R., “Issues in experimental design and endpoint analysis in the study of experimental cytotoxic agents in vivo in breast cancer and other models”, Breast Cancer Res. Treat, 46, 255-78 (1997). This is applied to MV (Tumor volume). In the third efficacy experiment, the tumor model is set up as in the second experiment.
# [5] = system: NCI-N87 tumors (human gastric carcinoma cells); assay: NCI-N87 gastric cancer xenograft model, first experiment (Example 3); format: in vivo, mice
# Procedure: Cells are harvested with trypsin (0.25% w/v)-EDTA (0.53 mM), are re-suspended in culture medium (with additives) and are counted with a Casy® system. Cell culture reagents are purchased from BioConcept (Allschwil, Switzerland). NCI-N87 tumors are established by injecting […] to 1×10^7 cells (in HBSS containing 50% v/v Matrigel) subcutaneously with a 23 Gauge needle. When tumors are established and reach between 180 and 210 mm^3, animals are randomized into treatment groups and the treatments are initiated. Compound A is formulated in NMP/PEG300/Solutol HS15/water (10:30:20:40% vol/vol) The compound is fully dissolved in NMP first and water is added immediately prior to administration to animals. […] All doses of AUY922 refer to the free base equivalent. AUY922 is administered iv at a volume of 10 ml/kg, twice a week. […] Pairwise comparisons are done using a one way ANOVA followed by Tukey's test. The level of significance of body weight change within a group between start and end of the treatment period is determined using a paired t-test. […] Calculations are performed using GraphPad Prism 4 for windows (GraphPad Software Inc.). In addition, an approximation of drug interactions is made using the method described by Clarke R., “Issues in experimental design and endpoint analysis in the study of experimental cytotoxic agents in vivo in breast cancer and other models”, Breast Cancer Res. Treat, 46, 255-78 (1997). This is applied to MV (Tumor volume). Female athymic nude mice are treated orally once a day with 50 mg/kg Compound A, alone or in combination with 50 mg/kg of AUY922 administered intravenously twice a week. […] For compound A, B or the combination AB (with Vehicle Control group C), antagonism is predicted when the calculation AB/C>A/C×B/C, additive effect: AB/C=A/C×B/C, synergistic interactions are predicted to occur when AB/C<[…].
# [6] = system: KYSE-70 tumors (esophageal squamous cell carcinoma cells); assay: KYSE-70 esophageal squamous cell carcinoma xenograft model (Example 4); format: in vivo, mice
# Procedure: KYSE-70 tumors are established by injecting 7.5×10^6 KYSE-70 cells, which are esophageal squamous cell carcinoma cells, in 100 μl cell suspension, with a 23 gauge needle subcutaneously on the right flank of the mice. Ten (10) days after implantation, […]. When tumors are established and reach about 156 mm^3 (minimum 86 mm^3, maximum 218 mm^3) approximately 10 days after implantation, 48 animals are selected and randomized into 6 treatment groups (n=8). Placebo control is formulated as 10 ml/kg of 250 μl NMP, 750 μl PEG300, 500 μl Solutol HS15, and 1000 μl water for delivery once daily per oral (Placebo 1) and as 10 ml/kg of 2.5 ml Glucose for delivery intravenously twice a week (Placebo 2). Compound A is formulated in NMP/PEG300/Solutol HS15/water (10:30:20:40% vol/vol). The compound is fully dissolved in NMP first and water is added immediately prior to administration to animals. […] All doses of AUY922 refer to the free base equivalent. AUY922 is administered iv at a volume of 10 ml/kg, twice a week.
# [7] = Group 2: 12.5 mg/kg Compound A per oral once daily
# [8] = Group 3: 50 mg/kg Compound A per oral once daily
smiles,measurement,setting,value
"Cc1nc(NC(=O)N2CCC[C@H]2C(N)=O)sc1-c1ccnc(C(C)(C)C(F)(F)F)c1 [Compound A, (S)-Pyrrolidine-1,2-dicarboxylic acid 2-amide 1-({4-methyl-5-[2-(2,2,2-trifluoro-1,1-dimethyl-ethyl)-pyridin-4-yl]-thiazol-2-yl}-amide)]",stability of suspension,[1]; Compound A in NMP/PEG300/Solutol HS15/water (10:30:20:40% vol/vol),stable for one week
same,stability of suspension,[1]; Compound A suspension in 0.5% Methylcellulose,stable for one week
same,body weight change,[2]; 12.5 mg/kg,5.3±1.4%
same,body weight change,[2]; 25 mg/kg,2.2±1.1%
same,body weight change,[2]; 50 mg/kg,−1.1±1.6%
same,T/C,[3]; Compound A 25 mg/kg q.d. p.o.,11%
same,T/C,[3]; Compound A 50 mg/kg q.d. p.o.,10%
same,T/C,[4]; Compound A 12.5 mg/kg orally once a day,37.8%
same,mean change of tumor volume (mm^3±SEM),[4]; Compound A 12.5 mg/kg,73.9±17.6 mm^3
same,regressions,[4]; Compound A 50 mg/kg orally once a day,6.4%
same,mean change of tumor volume (mm^3±SEM),[4]; Compound A 50 mg/kg,−13.3±6.7 mm^3
same,T/C,"[5]; Compound A 50 mg/kg orally once a day, single agent",4.2%
same,ΔTV Cmpd. A (A),"[5]; Compound A 50 mg/kg orally once a day, change of tumor volume (mm^3)",1.4
same,A/C,"[5]; ΔTV of Compound A over vehicle control, Clarke method",0.006
same,T/C [%] Day 10,[6]; [7],100.0%
same,T/C [%] Day 14,[6]; [7],−7.1%
same,T/C [%] Day 17,[6]; [7],74.0%
same,T/C [%] Day 21,[6]; [7],40.6%
same,T/C [%] Day 24,[6]; [7],47.5%
same,T/C [%] Day 10,[6]; [8],100.0%
same,T/C [%] Day 14,[6]; [8],−49.3%
same,T/C [%] Day 17,[6]; [8],−2.7%
same,T/C [%] Day 21,[6]; [8],−40.1%
same,T/C [%] Day 24,[6]; [8],−10.9%
